In patent publication US20240018133A1, “MODULATORS OF THE INTEGRATED STRESS PATHWAY” (Calico Life Sciences LLC, priority 2019, published 2024):
pEC50: −log10 of the molar value.

Test system: ATF4 luciferase reporter (human full-length ATF4 5'-UTR fused to firefly luciferase) in HEK293T cells
Test: ATF4-Luc assay (in vitro model of VWMD): HEK293T cells carrying ATF4 luciferase reporter, tunicamycin-treated
Assay type: cell-based
Settings: Homo sapiens, HEK-293T, 1 μg/mL tunicamycin, 7 hours, One Glo luminescence
In short: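 Reporter cells were stably generated by retroviral transduction and puromycin selection, then seeded at 30,000 cells/well. Next day, cells received 1 μg/mL tunicamycin with 200 nM test compound for 7 h, and luciferase luminescence was read with a one-step reagent. Values reported as EC50.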

Compound	pEC50
O=C(COc1ccc(F)c(F)c1)NC12CC(NC(=O)[C@H]3C[C@@H](O)c4cc(Cl)ccc4O3)(C1)C2 [Compound 277, (2R,4R)-6-chloro-N-{3-[2-(3,4-difluorophenoxy)acetamido]bicyclo[1.1.1]pentan-1-yl}-4-hydroxy-3,4-dihydro-2H-1-benzopyran-2-carboxamide]	> 8.00
O=C(COc1ccc(F)c(F)c1)NC12CC(NC(=O)[C@@H]3C[C@H](O)c4cc(Cl)ccc4O3)(C1)C2 [Compound 278, (2S,4S)-6-chloro-N-{3-[2-(3,4-difluorophenoxy)acetamido]bicyclo[1.1.1]pentan-1-yl}-4-hydroxy-3,4-dihydro-2H-1-benzopyran-2-carboxamide]	7.30 to 8.00
O=C(COc1ccc(Cl)c(F)c1)NC12CC(NC(=O)[C@@H]3C=Cc4cc(Cl)ccc4O3)(C1)C2 [Compound 279, (2S)-6-chloro-N-{3-[2-(4-chloro-3-fluorophenoxy)acetamido]bicyclo[1.1.1]pentan-1-yl}-2H-1-benzopyran-2-carboxamide]	> 8.00
Cc1cc(Cl)cc2c(=O)cc(C(=O)NC34CC(NC(=O)COc5ccc(Cl)c(F)c5)(C3)C4)oc12 [Compound 282, 6-chloro-N-{3-[2-(4-chloro-3-fluorophenoxy)acetamido]bicyclo[1.1.1]pentan-1-yl}-8-methyl-4-oxo-4H-1-benzopyran-2-carboxamide]	< 5.70
COc1ccc2c(=O)cc(C(=O)NC34CC(NC(=O)COc5ccc(Cl)c(F)c5)(C3)C4)oc2c1 [Compound 283, N-{3-[2-(4-chloro-3-fluorophenoxy)acetamido]bicyclo[1.1.1]pentan-1-yl}-7-methoxy-4-oxo-4H-1-benzopyran-2-carboxamide]	7.30 to 8.00
Cc1ccc2c(=O)cc(C(=O)NC34CC(NC(=O)COc5ccc(Cl)c(F)c5)(C3)C4)oc2c1 [Compound 284, N-{3-[2-(4-chloro-3-fluorophenoxy)acetamido]bicyclo[1.1.1]pentan-1-yl}-7-methyl-4-oxo-4H-1-benzopyran-2-carboxamide]	7.30 to 8.00
Cc1cc2oc(C(=O)NC34CC(NC(=O)COc5ccc(Cl)c(F)c5)(C3)C4)cc(=O)c2cc1C [Compound 285, N-{3-[2-(4-chloro-3-fluorophenoxy)acetamido]bicyclo[1.1.1]pentan-1-yl}-6,7-dimethyl-4-oxo-4H-1-benzopyran-2-carboxamide]	> 8.00
O=C(COc1ccc(Cl)c(F)c1)NC12CC(NC(=O)c3cc(=O)c4ccc(OC(F)F)cc4o3)(C1)C2 [Compound 286, N-{3-[2-(4-chloro-3-fluorophenoxy)acetamido]bicyclo[1.1.1]pentan-1-yl}-7-(difluoromethoxy)-4-oxo-4H-1-benzopyran-2-carboxamide]	6.60 to 7.30
COc1ccc2oc(C(=O)NC34CC(NC(=O)COc5ccc(Cl)c(F)c5)(C3)C4)cc(=O)c2c1 [Compound 287, N-{3-[2-(4-chloro-3-fluorophenoxy)acetamido]bicyclo[1.1.1]pentan-1-yl}-6-methoxy-4-oxo-4H-1-benzopyran-2-carboxamide]	6.60 to 7.30
O=C(COc1ccc(Cl)c(F)c1)NC12CC(NC(=O)c3cc(=O)c4cc(Cl)cc(Cl)c4o3)(C1)C2 [Compound 289, 6,8-dichloro-N-{3-[2-(4-chloro-3-fluorophenoxy)acetamido]bicyclo[1.1.1]pentan-1-yl}-4-oxo-4H-1-benzopyran-2-carboxamide]	5.70 to 6.30
CC(C)c1ccc2oc(C(=O)NC34CC(NC(=O)COc5ccc(Cl)c(F)c5)(C3)C4)cc(=O)c2c1 [Compound 290, N-{3-[2-(4-chloro-3-fluorophenoxy)acetamido]bicyclo[1.1.1]pentan-1-yl}-4-oxo-6-(propan-2-yl)-4H-1-benzopyran-2-carboxamide]	7.30 to 8.00
O=C(COc1ccc(Cl)c(F)c1)NC12CC(NC(=O)c3cc(=O)c4ccc5c(c4o3)OCO5)(C1)C2 [Compound 291, N-{3-[2-(4-chloro-3-fluorophenoxy)acetamido]bicyclo[1.1.1]pentan-1-yl}-6-oxo-2H,6H-[1,3]dioxolo[4,5-h][1]benzopyran-8-carboxamide]	6.60 to 7.30
O=C(COc1ccc(Cl)c(F)c1)NC12CC(NC(=O)c3cc(=O)c4cc(F)cc(F)c4o3)(C1)C2 [Compound 292, N-{3-[2-(4-chloro-3-fluorophenoxy)acetamido]bicyclo[1.1.1]pentan-1-yl}-6,8-difluoro-4-oxo-4H-1-benzopyran-2-carboxamide]	6.60 to 7.30
O=C(COc1ccc(Cl)c(F)c1)NC12CC(NC(=O)c3cc(=O)c4cccc(Cl)c4o3)(C1)C2 [Compound 294, 8-chloro-N-{3-[2-(4-chloro-3-fluorophenoxy)acetamido]bicyclo[1.1.1]pentan-1-yl}-4-oxo-4H-1-benzopyran-2-carboxamide]	5.70 to 6.30
O=C(COc1ccc(Cl)c(F)c1)NC12CC(NC(=O)c3cc(=O)c4ccc(O)cc4o3)(C1)C2 [Compound 295, N-{3-[2-(4-chloro-3-fluorophenoxy)acetamido]bicyclo[1.1.1]pentan-1-yl}-7-hydroxy-4-oxo-4H-1-benzopyran-2-carboxamide]	< 5.70
CCC1(O)CC(C(=O)NC23CC(NC(=O)COc4ccc(Cl)c(F)c4)(C2)C3)Oc2ccc(Cl)cc21 (centres unmarked) [Compound 297, 6-chloro-N-{3-[2-(4-chloro-3-fluorophenoxy)acetamido]bicyclo[1.1.1]pentan-1-yl}-4-ethyl-4-hydroxy-3,4-dihydro-2H-1-benzopyran-2-carboxamide]	> 8.00
O=C(COc1ccc(Cl)c(F)c1)NC12CC(NC(=O)C3C/C(=N\O)c4cc(F)ccc4O3)(C1)C2 (centres unmarked) [Compound 298, N-{3-[2-(4-chloro-3-fluorophenoxy)acetamido]bicyclo[1.1.1]pentan-1-yl}-6-fluoro-4-(hydroxyimino)-3,4-dihydro-2H-1-benzopyran-2-carboxamide]	7.30 to 8.00
O=C(COc1ccc(C(F)(F)F)nc1)NC12CC(NC(=O)[C@@H]3C[C@H](O)c4cc(Cl)ccc4O3)(C1)C2 [Compound 299, (2S,4S)-6-chloro-4-hydroxy-N-[3-(2-{[6-(trifluoromethyl)pyridin-3-yl]oxy}acetamido)bicyclo[1.1.1]pentan-1-yl]-3,4-dihydro-2H-1-benzopyran-2-carboxamide]	7.30 to 8.00
O=C(COc1ccc(Cl)c(F)c1)NC12CC(NC(=O)C3CC(O)c4cc(F)ccc4O3)(C1)C2 (centres unmarked) [Compound 300, N-{3-[2-(4-chloro-3-fluorophenoxy)acetamido]bicyclo[1.1.1]pentan-1-yl}-6-fluoro-4-hydroxy-3,4-dihydro-2H-1-benzopyran-2-carboxamide]	> 8.00
CNC1CC(C(=O)NC23CCC(NC(=O)COc4ccc(Cl)c(F)c4)(CC2)[C@@H](O)C3)Oc2ccc(Cl)cc21 (stereo partly drawn) [Compound 303, 6-chloro-N-{(3S)-4-[2-(4-chloro-3-fluorophenoxy)acetamido]-3-hydroxybicyclo[2.2.2]octan-1-yl}-4-(methylamino)-3,4-dihydro-2H-1-benzopyran-2-carboxamide]	> 8.00
O=C(NC12CCC(NC(=O)C3CC(=O)c4cc(Cl)ccc4O3)(CC1)CC2)c1cnc(C(F)F)cn1 (centres unmarked) [Compound 304, N-{4-[(6-chloro-4-oxo-3,4-dihydro-2H-1-benzopyran-2-carbonyl)amino]bicyclo[2.2.2]octan-1-yl}-5-(difluoromethyl)pyrazine-2-carboxamide]	5.70 to 6.30
NC1CC(C(=O)NC23CC(NC(=O)COc4ccc(Cl)c(F)c4)(C2)C3)Oc2ccc(Cl)cc21 (centres unmarked) [Compound 305, 4-amino-6-chloro-N-{3-[2-(4-chloro-3-fluorophenoxy)acetamido]bicyclo[1.1.1]pentan-1-yl}-3,4-dihydro-2H-1-benzopyran-2-carboxamide]	> 8.00
O=C(COc1ccc(Cl)c(F)c1)NC12CCC(NC(=O)[C@@H]3C[C@H](O)c4cc(Cl)ccc4O3)(CC1)CC2 [Compound 306, (2S,4S)-6-chloro-N-{4-[2-(4-chloro-3-fluorophenoxy)acetamido]bicyclo[2.2.2]octan-1-yl}-4-hydroxy-3,4-dihydro-2H-1-benzopyran-2-carboxamide]	7.30 to 8.00
O=C(COc1ccc(Cl)c(F)c1)NC12CC(NC(=O)[C@H]3C=Cc4cc(Cl)ccc4O3)(C1)C2 [Compound 307, (2R)-6-chloro-N-{3-[2-(4-chloro-3-fluorophenoxy)acetamido]bicyclo[1.1.1]pentan-1-yl}-2H-1-benzopyran-2-carboxamide]	> 8.00
O=C(COc1ccc(Cl)c(F)c1)NC12CC(NC(=O)[C@H]3C[C@@H](NCCO)c4cc(Cl)ccc4O3)(C1)C2 [Compound 308, (2R,4R)-6-chloro-N-{3-[2-(4-chloro-3-fluorophenoxy)acetamido]bicyclo[1.1.1]pentan-1-yl}-4-[(2-hydroxyethyl)amino]-3,4-dihydro-2H-1-benzopyran-2-carboxamide]	7.30 to 8.00
O=C(COc1ccc(Cl)c(F)c1)NC12CC(NC(=O)[C@@H]3C[C@H](NCCO)c4cc(Cl)ccc4O3)(C1)C2 [Compound 309, (2S,4S)-6-chloro-N-{3-[2-(4-chloro-3-fluorophenoxy)acetamido]bicyclo[1.1.1]pentan-1-yl}-4-[(2-hydroxyethyl)amino]-3,4-dihydro-2H-1-benzopyran-2-carboxamide]	> 8.00
O=C(COc1ccc(Cl)c(F)c1)NC12CCC(NC(=O)C3CC(=O)c4cc(Cl)ccc4O3)(C1)C2 (centres unmarked) [Compound 310, 6-chloro-N-{4-[2-(4-chloro-3-fluorophenoxy)acetamido]bicyclo[2.1.1]hexan-1-yl}-4-oxo-3,4-dihydro-2H-1-benzopyran-2-carboxamide]	7.30 to 8.00
O=C(NC12CCC(NC(=O)C3CC(=O)c4cc(Cl)ccc4O3)(C1)C2)c1ccc(OC(F)(F)F)cn1 (centres unmarked) [Compound 311, N-{4-[(6-chloro-4-oxo-3,4-dihydro-2H-1-benzopyran-2-carbonyl)amino]bicyclo[2.1.1]hexan-1-yl}-5-(trifluoromethoxy)pyridine-2-carboxamide]	6.60 to 7.30
O=C(NC12CCC(NC(=O)C3CC(=O)c4cc(Cl)ccc4O3)(C1)C2)OCc1ccccc1 (centres unmarked) [Compound 312, benzyl {4-[(6-chloro-4-oxo-3,4-dihydro-2H-1-benzopyran-2-carbonyl)amino]bicyclo[2.1.1]hexan-1-yl}carbamate]	5.70 to 6.30
